Patent US6399543B1, “Low foam N,N′-dialkyltartaramide wetting agents” (Air Products and Chemicals, Inc., priority 2001, dated 2002)

Tests used:
Assay type in all cases: physicochemical
[1] = Foaming properties of aqueous solutions, procedure based upon ASTM D 1173-53; details: filtrate of aqueous mixture of the tartaramide; for Initial Foam: foam height at completion of addition
Procedure: The foaming properties of aqueous solutions of N,N′-di-iso-pentyl L-tartaramide (Ex 1), N,N′-di-2-ethylhexyl L-tartaramide (Ex 5) and two representative nonionic surfactants, a commercial nonylphenol 15 mole ethoxylate surfactant and a commercial C8 alkyl glucoside surfactant, were examined using a procedure based upon ASTM D 1173-53.
In this test, an aqueous mixture of the tartaramides was prepared, any undissolved solids were filtered off, and the filtrate was added from an elevated glass pipette to a glass receiver containing the same filtrate. Regarding the commercial materials, a 0.1 wt % solution of the surfactant was added from an elevated glass pipette to a glass receiver containing the same solution. The foam height was measured at the completion of the addition (“Initial Foam Height”) and the time required for the foam to dissipate at the air-liquid interface (“Time to 0 Foam”) was recorded. This test provides a comparison between the foaming characteristics of various surfactants. In general, in coatings, inks, adhesives, agricultural and electronics cleaning formulations, foam is undesirable because it complicates handling and can lead to coating and print defects, and to inefficient application of agricultural materials.

[2] = Equilibrium surface tension (EST), Wilhelmy plate method, saturated aqueous solutions; details: for Limiting EST: saturated solution in distilled water, undissolved material filtered off, Wilhelmy plate
Procedure: where R^1 and R^2 are C4 to C8 alkyl groups, and at least one of R^1 and R^2 is a branched C4 to C8 alkyl group. […] The Wilhelmy plate method of measuring surface tension is described in L. Wilhelmy's article in Ann. Phys. 1863, 119, 177, which is incorporated by reference.
(§1) Saturated solutions of the materials of Examples 1-9 in distilled water were prepared. After shaking the solutions for ˜24 hours, the undissolved material was removed via filtration. Equilibrium surface tension (EST) data were obtained using the Wilhelmy plate method. Equilibrium surface tension values between 65-72 dyne/cm are considered to be indicative of a lack of surface activity (i.e., a lack of surfactancy).
The limiting surface tensions represent the lowest surface tensions in water which can be achieved for a given surfactant regardless of the amount of surfactant used and is used to evaluate the effectiveness of a surfactant. Lower surface tensions would allow for the elimination of defects upon application of a formulation onto low energy surfaces.

[3] = Concentration of surfactant in filtered saturated solution in distilled water; details: shaken ~24 hours
Procedure: as §1

Row | SMILES | Foam after 5 min [1] [cm] | Time to zero foam [1] | Initial Foam [1] [cm] | Limiting EST [2] [dyne/cm] | Concentration of Surfactant in Solution [3] [wt. %] | lowering the equilibrium surface tension of water (in words) [2]
1 | CC(C)CCNC(=O)[C@H](O)[C@@H](O)C(=O)NCCC(C)C [Ex 1, N,N′-Di-iso-pentyl L-tartaramide] | 0 | ≦5 sec | 0.5 | 48.0 | <1.5 | –
2 | CCCCCCC(C)NC(=O)C(O)C(O)C(=O)NC(C)CCCCCC [Ex 2, N,N′-Di-1-methylheptyl L-tartaramide] | – | – | – | 39.5 | <0.1 | particularly effective
3 | CC(C)CCCC(C)NC(=O)C(O)C(O)C(=O)NC(C)CCCC(C)C [Ex 3, N,N′-Di-1,5-dimethylhexyl L-tartaramide] | – | – | – | 38.0 | <0.1 | particularly effective
4 | CCCCCC(C)NC(=O)C(O)C(O)C(=O)NC(C)CCCCC [Ex 4, N,N′-Di-1-methylhexyl L-tartaramide] | – | – | – | 41.5 | <0.1 | particularly effective
5 | CCCCC(CC)CNC(=O)C(O)C(O)C(=O)NCC(CC)CCCC [Ex 5, N,N′-Di-2-ethylhexyl L-tartaramide] | 0 | ˜3 sec | 1.5 | 41.4 | <0.1 | particularly effective
6 | CCCCCCNC(=O)[C@H](O)[C@@H](O)C(=O)NCCCCCC [Ex 8, N,N′-Di-n-hexyl L-tartaramide] | – | – | – | 67.8 | <0.1 | –

The remaining lines, values ahead:

Row | Foam after 5 min [1] [cm] | Time to zero foam [1] | Initial Foam [1] [cm] | Limiting EST [2] [dyne/cm] | Concentration of Surfactant in Solution [3] [wt. %] | lowering the equilibrium surface tension of water (in words) [2] | SMILES
7 | – | – | – | 67.7 | <1.0 | – | CCCNC(=O)[C@H](O)[C@@H](O)C(=O)NCCC [Ex 6, N,N′-Di-n-propyl L-tartaramide]
8 | – | – | – | 65.0 | <1.0 | – | CCCCNC(=O)[C@H](O)[C@@H](O)C(=O)NCCCC [Ex 7, N,N′-Di-n-butyl L-tartaramide]
9 | – | – | – | 67.9 | <0.1 | – | O=C(NC1CCCCC1)[C@H](O)[C@@H](O)C(=O)NC1CCCCC1 [Ex 9, N,N′-Di-cyclohexyl L-tartaramide]
